Assay [1] deals with T1, SCO7701 (C-methyltransferase) (Streptomyces coelicolor, UniProt Q9F1Y5).
T1 sequence (Q9F1Y5 1-292): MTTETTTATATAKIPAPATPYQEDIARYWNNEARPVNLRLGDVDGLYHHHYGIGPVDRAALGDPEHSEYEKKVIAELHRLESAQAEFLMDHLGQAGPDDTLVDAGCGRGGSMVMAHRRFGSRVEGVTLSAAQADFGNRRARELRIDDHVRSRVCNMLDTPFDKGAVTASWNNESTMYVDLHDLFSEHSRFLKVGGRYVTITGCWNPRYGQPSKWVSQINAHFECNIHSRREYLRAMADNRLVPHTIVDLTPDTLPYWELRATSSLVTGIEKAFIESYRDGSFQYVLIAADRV
The experiment in a line: incubation with recombinant enzyme, product identification. It counts as biochemical.

The target in assay [2] is T2, avermitilol synthase (SAV_76) (Streptomyces avermitilis, UniProt Q82RR7).
T2 sequence (Q82RR7 1-335): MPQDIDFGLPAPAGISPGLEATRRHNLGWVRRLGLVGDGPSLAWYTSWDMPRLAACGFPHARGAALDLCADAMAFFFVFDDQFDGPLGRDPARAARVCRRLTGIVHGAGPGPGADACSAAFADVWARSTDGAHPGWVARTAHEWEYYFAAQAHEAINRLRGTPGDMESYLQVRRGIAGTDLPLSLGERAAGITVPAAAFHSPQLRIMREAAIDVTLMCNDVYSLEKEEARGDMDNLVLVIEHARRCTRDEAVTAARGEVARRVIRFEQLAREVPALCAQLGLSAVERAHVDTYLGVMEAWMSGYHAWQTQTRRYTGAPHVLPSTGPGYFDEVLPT
The experiment in a line: incubation with purified recombinant enzyme, product identification. Particulars: main product avermitilol. It counts as biochemical.

Assay [3] addresses T3, PtlA (SAV_2998), pentalenene synthase (Streptomyces avermitilis, UniProt Q82IY4).
T3 sequence (Q82IY4 1-336): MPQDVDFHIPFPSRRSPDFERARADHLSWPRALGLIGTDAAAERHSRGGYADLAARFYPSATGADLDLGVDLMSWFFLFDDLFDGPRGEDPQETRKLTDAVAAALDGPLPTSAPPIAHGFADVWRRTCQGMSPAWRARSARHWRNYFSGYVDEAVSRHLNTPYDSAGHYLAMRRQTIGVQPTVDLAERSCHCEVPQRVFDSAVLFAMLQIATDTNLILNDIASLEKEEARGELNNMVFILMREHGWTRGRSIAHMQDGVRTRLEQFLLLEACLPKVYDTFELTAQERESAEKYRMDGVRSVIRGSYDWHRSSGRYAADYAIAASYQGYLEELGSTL
The experiment in a line: incubation with recombinant enzyme, product identification. It counts as biochemical.

In assay [4] the target is T4, epi-isozizaene synthase (SCO5222) (Streptomyces coelicolor, UniProt Q9K499).
T4 sequence (Q9K499 1-361): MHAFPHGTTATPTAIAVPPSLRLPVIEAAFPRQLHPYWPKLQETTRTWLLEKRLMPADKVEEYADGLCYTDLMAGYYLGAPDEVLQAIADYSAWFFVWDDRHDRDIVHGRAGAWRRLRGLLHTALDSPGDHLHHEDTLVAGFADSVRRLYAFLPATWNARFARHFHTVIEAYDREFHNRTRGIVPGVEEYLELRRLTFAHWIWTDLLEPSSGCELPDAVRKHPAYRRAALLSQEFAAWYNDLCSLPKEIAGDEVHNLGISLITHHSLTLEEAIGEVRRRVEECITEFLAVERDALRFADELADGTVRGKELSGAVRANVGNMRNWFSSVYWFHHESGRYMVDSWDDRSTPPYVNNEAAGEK
Described as above. It counts as biochemical.

The next assay deals with PtlI (SAV_2999) (Streptomyces avermitilis, UniProt Q82IY3). Conditions: oxidation to pentalenal.

Molecules are shown by their SMILES.

The text below walks through data of publication PMC3288161 (Accounts of Chemical Research, 2011).

As to `C[S+](CC[C@H](N)C(=O)O)C[C@H]1O[C@@H](n2cnc3c(N)ncnc32)[C@H](O)[C@@H]1O` (stereo partly drawn) [S-adenosyl-L-methionine], the “incubation with recombinant enzyme, product identification” value (shortened to “incubation with recombinant enzyme”) in assay [1] (co-substrate GPP, methyl donor) is “Incubation of GPP and SAM with recombinant SCO7701 gave exclusively”.

Take `CC(C)=CCC/C(C)=C/CC/C(C)=C/COP(=O)(O)OP(=O)(O)O` [compound 4, farnesyl diphosphate]: the “incubation with purified recombinant enzyme, product identification” value in assay [2] was “Incubation of the purified recombinant SAV76 protein with FPP gave a mixture”. Besides, the “incubation with recombinant enzyme” value in assay [3] is listed as “Incubation of recombinant PtlA with FPP gave pentalenene”; in assay [4], “Incubation of the recombinant protein with FPP gave as the major product”.

Regarding `CC1=C[C@@H]2CC(C)(C)C[C@@]23[C@H](C)CC[C@@H]13` [compound 6, pentalenene], the “expressed enzyme, product identification” value at PtlI (SAV_2999) is given as “cytochrome P450 catalyzing the 3-step oxidation of pentalenene to pentalenal”.

Consider `CC(C)=CCC/C(C)=C/COP(=O)(O)OP(=O)(O)O` [compound 3, geranyl diphosphate], for which the “incubation with recombinant enzyme” value in assay [1] (co-substrate SAM, product 2-MeGPP) was “Incubation of GPP and SAM with recombinant SCO7701 gave exclusively”.
